# Reference: patent US9364479B2, “Use of a receptor-type kinase modulator for treating polycystic kidney disease” (SYMPHONY EVOLUTION, INC., priority 2010, dated 2016)
# Like-named read-outs stand apart in the source and are kept apart here.
# Key:
# Adenosine, Non-selective = assay: NovaScreen assay; assay type: binding
# EphB4 = molecular target: T1, EphB4 (Homo sapiens, UniProt P54760); assay: EphB4 autophosphorylation ELISA, EphB4/Hep3B cells; assay type: cell-based; settings: read-out: Cellular IC50, autophosphorylation
# T1 construct: expressed in transfected cells; host or cells: Hep3B
# Procedure: The EphB4 autophosphorylation ELISA utilized EphB4/Hep3B cells. Cells were seeded at 2×10^4 cells/well onto 96-well microtiter plates (Costar 3904), in MEME (Cellgro) containing 10% FBS (Heat-Inactivated, Hyclone), 1% penicillin-streptomycin (Cellgro) and 450 μg/ml G418 (Invitrogen). The cells were then incubated at 37° C., 5% CO2 for 24 h. Growth media was replaced with serum-free MEME and cells were incubated for an additional 16 h. […] Negative control wells were not treated with growth factor. Following treatment, media was removed, the cell monolayer washed with cold PBS and immediately lysed with cold lysis buffer (50 mM Tris-HCl, pH 8.0, 200 mM NaCl, 0.5% NP-40, 0.2% sodium deoxcholate, 1 mM EDTA, 50 mM NaF, 1 mM sodium pyrophosphate, 1 mM sodium orthovanadate, 2 mM phenylmethylsulfonyl fluoride, 10 μg/ml aprotinin, 5 μg/ml leupeptin and 5 μg/ml pepstatin A). Lysates were centrifuged and incubated in blocked (1% BSA) high-binding 96-well plates (Costar 3925) coated with anti-mouse EphB4 (2.5 μg/ml, R&D Systems). Plates were then incubated with HRP-conjugated anti-phosphotyrosine cocktail (1:10,000, Zymed Laboratories, Inc) followed by the addition of a luminol-based substrate solution. Plates were read using a Victor spectrophotometer (Wallac).
# bpk mice = test system: bpk mice
# Source text: The BPK model of ARPKD retains the same altered location of EGFR that is seen in murine and human ADPKD. This model is therefore widely accepted as a general means for affecting the EGFR abnormality in PKD, both ARPKD and ADPKD. The BPK model arose as a spontaneous mutation in an inbred colony of BALB/c mice. Homozygous bpk mice develop massively enlarged kidneys and die of renal failure at an average postnatal age of 24 days (PN-24). […] Extra renal manifestations include biliary proliferation and ductal ectasia. Because of the recessive nature of the disease, wild type +/+ and heterozygous bpk/+ mice are phenotypically normal. The primary measurement used in these studies is a comparison of the kidney weight to body weight ratio (KW/BW). […] Additional measurements include assessment of renal function (BUN, creatinine and MUCA) and histological evaluation of kidney size and collecting tubules-cystic index (CT-CI).
# These animals were housed in Medical College of Wisconsin vivarium facilities. All animal experiments were conducted in accordance with policies of the NIH Guide for the Care and Use of Laboratory Animals and the Institutional Animal Care and Use Committee of the Medical College of Wisconsin.
# Animals were treated from PN-7 through PN-21 and evaluated for extent of disease. The identity of […] animals can be readily determined post-mortem by the presence of greatly enlarged kidneys. On PN-21, the study was terminated and animals were sacrificed. The mass of each animal was determined. Both kidneys from each animal were excised and weighed. The kidney weight to body weight ratio (KW/BW) was determined by the following formula: KW/BW=[mass of both kidneys]/[mass of animal].
# In addition, renal cystic index (CI) was calculated. Lectins specific to the proximal tubules (PTs) (lotus tetragonolobus [LTA]) and collecting tubules (CTs) (Dolichos biflorus agglutins [DBA]) were stained and used to assess severity of cystic dilations on a scale from 0-5. Renal function was assessed by obtaining BUN and creatinine levels via cardiac puncture. MUCA was measured after keeping the animals without water for 12 hrs.
# [1] = human, in vivo
# [2] = molecular target: T2, Cholecystokinin, CCK1 (CCKA) (Homo sapiens, UniProt P32238); assay: NovaScreen assay; assay type: binding; settings: read-out: Inhibition, 10 μM XL-647
# T2 construct: NovaScreen
# Endothelin, ET-B (Human) = molecular target: T3, Endothelin, ET-B (Human) (Homo sapiens, UniProt P24530); assay: NovaScreen assay; assay type: binding; settings: read-out: Inhibition, 10 μM XL-647
# T3 construct: NovaScreen
# [3] = 7.5 mg/kg/day, PN Day 21, 7.5 mg/kg/day
# [4] = 7.5 mg/kg/day, PN Day 21, listed as PRIM-001, 7.5 mg/kg/day
# T3 sequence (P24530 27-442): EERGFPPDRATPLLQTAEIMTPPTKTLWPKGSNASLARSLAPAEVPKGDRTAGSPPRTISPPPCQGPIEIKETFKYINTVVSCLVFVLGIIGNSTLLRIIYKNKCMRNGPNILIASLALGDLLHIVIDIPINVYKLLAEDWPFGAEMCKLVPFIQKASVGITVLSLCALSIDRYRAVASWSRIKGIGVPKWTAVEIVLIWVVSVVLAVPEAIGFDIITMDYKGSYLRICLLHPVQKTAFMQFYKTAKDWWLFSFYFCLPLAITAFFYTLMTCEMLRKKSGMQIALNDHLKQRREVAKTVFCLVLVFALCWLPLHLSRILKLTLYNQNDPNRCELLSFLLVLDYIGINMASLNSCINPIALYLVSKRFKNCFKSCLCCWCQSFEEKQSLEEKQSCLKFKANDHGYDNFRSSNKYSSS
# T2 sequence (P32238 whole entry): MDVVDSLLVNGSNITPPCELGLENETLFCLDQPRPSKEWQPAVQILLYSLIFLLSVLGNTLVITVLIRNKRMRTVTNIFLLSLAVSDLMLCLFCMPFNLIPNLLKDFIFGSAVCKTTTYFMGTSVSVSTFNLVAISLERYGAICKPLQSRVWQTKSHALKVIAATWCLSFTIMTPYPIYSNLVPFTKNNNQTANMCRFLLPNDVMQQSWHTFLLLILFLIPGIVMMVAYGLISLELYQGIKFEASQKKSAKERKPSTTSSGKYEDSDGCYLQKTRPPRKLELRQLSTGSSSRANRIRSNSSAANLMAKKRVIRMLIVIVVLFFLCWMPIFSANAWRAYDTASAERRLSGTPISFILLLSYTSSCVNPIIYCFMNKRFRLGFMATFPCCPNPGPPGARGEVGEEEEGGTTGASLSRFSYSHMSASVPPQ
# T1 sequence (P54760 16-987): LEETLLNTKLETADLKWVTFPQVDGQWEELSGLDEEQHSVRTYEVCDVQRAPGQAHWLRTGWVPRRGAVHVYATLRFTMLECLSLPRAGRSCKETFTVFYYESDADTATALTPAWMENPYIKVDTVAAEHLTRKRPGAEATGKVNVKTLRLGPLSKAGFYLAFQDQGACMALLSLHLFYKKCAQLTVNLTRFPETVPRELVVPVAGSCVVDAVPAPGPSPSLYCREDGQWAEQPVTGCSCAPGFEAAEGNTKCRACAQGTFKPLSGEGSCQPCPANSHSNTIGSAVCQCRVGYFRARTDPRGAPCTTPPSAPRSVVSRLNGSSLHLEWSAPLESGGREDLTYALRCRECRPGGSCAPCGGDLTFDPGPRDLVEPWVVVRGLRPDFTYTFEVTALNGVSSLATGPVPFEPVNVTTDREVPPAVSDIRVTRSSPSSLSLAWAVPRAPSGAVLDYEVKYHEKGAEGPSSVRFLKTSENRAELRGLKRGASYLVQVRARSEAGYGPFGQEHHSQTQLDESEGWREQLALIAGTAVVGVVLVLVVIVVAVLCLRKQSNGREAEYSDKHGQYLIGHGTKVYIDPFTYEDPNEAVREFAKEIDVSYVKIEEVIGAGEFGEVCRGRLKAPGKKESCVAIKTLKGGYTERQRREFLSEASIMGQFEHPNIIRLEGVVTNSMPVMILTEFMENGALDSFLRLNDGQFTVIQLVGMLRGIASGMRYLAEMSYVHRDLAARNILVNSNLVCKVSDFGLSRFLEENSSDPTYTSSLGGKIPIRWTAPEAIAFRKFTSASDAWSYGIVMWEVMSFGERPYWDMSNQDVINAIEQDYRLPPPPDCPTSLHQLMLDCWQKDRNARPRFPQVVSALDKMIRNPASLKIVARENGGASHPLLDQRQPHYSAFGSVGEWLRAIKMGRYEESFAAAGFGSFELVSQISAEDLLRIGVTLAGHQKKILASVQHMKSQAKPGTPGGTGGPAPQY
smiles,measurement,setting,value
"COc1cc2c(Nc3ccc(Cl)c(Cl)c3F)ncnc2cc1OC[C@@H]1C[C@@H]2CN(C)C[C@@H]2C1 [XL-647, N-(3,4-dichloro-2-fluorophenyl)-7-({[(3aR,5r,6aS)-2-methyloctahydrocyclopenta[c]pyrrol-5-yl]methyl}oxy)-6-(methyloxy)quinazolin-4-amine]","Inhibition, 10 μM XL-647","Adenosine, Non-selective",47.89%
same,IC50,EphB4,3 nM
same,decrease of CT-CI,bpk mice; 7.5 mg/kg q.d.,25%
same,decrease of KW/BW,bpk mice; 7.5 mg/kg q.d.,21.5%
same,decrease of creatinine,bpk mice; 7.5 mg/kg q.d.,8.3%
same,improvement of MUCA,bpk mice; 7.5 mg/kg q.d.,20.1%
same,reduction of kidney weight,bpk mice; 7.5 mg/kg q.d.,21.8%
same,decrease of BUN,"bpk mice; 7.5 mg/kg q.d., 7.5 mg/kg",42%
same,BUN,"bpk mice; 7.5 mg/kg/day, PN Day 21",63.43 mg/dL
same,CT-CI,"bpk mice; 7.5 mg/kg/day, PN Day 21",3.60
same,Creatinine,"bpk mice; 7.5 mg/kg/day, PN Day 21",0.44 mg/dL
same,MUCA,"bpk mice; 7.5 mg/kg/day, PN Day 21",560.0 mOsmol
same,Kidney Weight,bpk mice; [3],1.61 ± 0.23 g
same,Kidney/Body weight,bpk mice; [3],15.34±1.26%
same,Kidney Weight,bpk mice; [4],1.61 g
same,Kidney/Body weight,bpk mice; [4],15.34%
same,decrease of BUN,bpk mice; 15 mg/kg q.d.,60.5%
same,decrease of CT-CI,bpk mice; 15 mg/kg q.d.,45.8%
same,decrease of creatinine,bpk mice; 15 mg/kg q.d.,25%
same,improvement of MUCA,bpk mice; 15 mg/kg q.d.,66.2%
same,reduction of kidney weight,bpk mice; 15 mg/kg q.d.,40.3%
same,BUN,"bpk mice; 15 mg/kg/day, PN Day 21",43.20 mg/dL
same,CT-CI,"bpk mice; 15 mg/kg/day, PN Day 21",2.60
same,Creatinine,"bpk mice; 15 mg/kg/day, PN Day 21",0.36 mg/dL
same,Kidney/Body weight,"bpk mice; 15 mg/kg/day, PN Day 21",12.36%
same,MUCA,"bpk mice; 15 mg/kg/day, PN Day 21",775.0 mOsmol
same,Kidney Weight,"bpk mice; 15 mg/kg/day, PN Day 21, 15 mg/kg/day",1.28 ± 0.09 g
same,Kidney Weight,"bpk mice; 15 mg/kg/day, PN Day 21, listed as PRIM-001, 15 mg/kg/day",1.28 g
same,"dose proportionality of AUC and Cmax, in words",[1],generally increased in proportion with dose
same,inhibition at 10 µM,[2],47.5%
same,inhibition at 10 µM,"Endothelin, ET-B (Human)",-13.6%
